“Also recorded” adds a separate entry of the source.
Assays:
Assay type in all cases: physicochemical
[1] = Stability under stress conditions (XRPD and HPLC purity)
Description: A predetermined amount of the crystalline form A of Compound 1 adipate was stored under the following conditions: (1) open to air under 25° C./60% RH for one or two weeks, (2) open to air under 40° C./75% RH for one or two weeks, (3) open to air under 80° C. for one day, and (4) exposed to light for 10 days. Crystalline form and chemical impurity were checked by XRPD and HPLC, respectively.
In Table 5, Sample No. 1 was a crystalline form A starting material before any test; Samples Nos. 2 and 3 were subject to condition (1) described above; Samples Nos. 4 and 5 were subject to condition (2) described above; Samples No. 6 was subject to condition (3) described above; and Samples Nos. 7 and 8 were subject to condition (4) described above where Sample No. 7 was not covered and Sample No. 8 was completely covered by a tin foil as a comparison.

[2] = Accelerated stability test, 40° C./75% RH, six months; details: for Appearance / Assay Adipic acid (potentiometric titration) / Assay DS-6051a (HPLC)/ (anhydrous and solvent free basis) / Related substances (UPLC) Total impurities / Water content (KF) / Related substances (UPLC) Unspecified individual impurity / Crystal form (XRPD): 40° C. ± 2° C./75 ± 5% RH; for Crystal form (XRPD): consistent with reference standard
Description: The accelerated stability test of the crystalline form A of Compound 1 adipate was performed by storing a sample at 40° C.±2° C./[…] for six months.

[3] = Long-term stability test, 25° C./60% RH, three years; details: for Appearance / Assay (anhydrous and solvent free basis) / Individual unspecified impurity (Maximum) / Total impurities / Water content / deF-6051: 25° C. ± 2° C./60 ± 5% RH
Description: The long-term stability test of the crystalline form A of Compound 1 adipate was performed by storing a sample at 25°±2° C./[…] for three years.

[4] = Dynamic Vapor Sorption (DVS), hygroscopicity
Description: Dynamic Vapor Sorption (DVS) was performed by using Intrinsic DVS (Surface Measurement Systems, UK). A sample was weighed in an amount of 20-30 mg and was placed in a sample chamber. The measurement was performed at DMDT mode when the temperature of the sample chamber was maintained at 25±1° C.

[5] = Exposure to light (1.2 million lux h), 10 days, completely covered by a tin foil (comparison)
[6] = Exposure to light (1.2 million lux h), 10 days, not covered
[7] = open to air, 25° C./60% RH, 1 week
[8] = open to air, 25° C./60% RH, 2 weeks
[9] = open to air, 40° C./75% RH, 1 week
[10] = open to air, 40° C./75% RH, 2 weeks
[11] = starting material before any test

SMILES: C[C@@H](N)COc1ccc(-c2cnc3ccc(N[C@H](C)c4cccc(F)c4)nn23)cc1 [crystalline form A of Compound 1 adipate, 3-{4-[(2R)-2-aminopropoxy]phenyl}-N-[(1R)-1-(3-fluorophenyl)ethyl]imidazo[1,2-b]pyridazin-6-amine]
- crystalline form on storage (physical stability) [1]: remains unchanged
- physical and chemical stability (in words) [1]: superior physical and chemical stability
- purity on storage (chemical stability) [1]: essentially unchanged
- Purity (%) [1, 5]: 99.81%
- XRPD [1, 5]: Form A
- Purity (%) [1, 6]: 99.79%
- XRPD [1, 6]: Form A
- Purity (%) [1, 7]: 99.81%
- XRPD [1, 7]: Form A
- Purity (%) [1, 8]: 99.79%
- XRPD [1, 8]: Form A
- Purity (%) [1, 9]: 99.84%
- XRPD [1, 9]: Form A
- Purity (%) [1, 10]: 99.81%
- XRPD [1, 10]: Form A
- Purity (%) ([1]; open to air, 80° C., 1 day): 99.68%
- XRPD ([1]; open to air, 80° C., 1 day): Form A
- Purity (%) [1, 11]: 99.86%
- XRPD [1, 11]: Form A
- stability (in words) [2]: superior stability
- Appearance ([2]; 0 M): White
- Assay Adipic acid (potentiometric titration) ([2]; 0 M): 26.2%
- Assay DS-6051a (HPLC)/ (anhydrous and solvent free basis) ([2]; 0 M): 99.5%
- Related substances (UPLC) Total impurities ([2]; 0 M): 0.05%
- Water content (KF) ([2]; 0 M): 0.2%
- Related substances (UPLC) Unspecified individual impurity ([2]; 0 M, RRT1.48): 0.05%
- Crystal form (XRPD) ([2]; 0 M): conform
- Appearance ([2]; 1 M): White
- Assay Adipic acid (potentiometric titration) ([2]; 1 M): 26.5%
- Assay DS-6051a (HPLC)/ (anhydrous and solvent free basis) ([2]; 1 M): 100.1%
- Related substances (UPLC) Total impurities ([2]; 1 M): <0.05%
- Related substances (UPLC) Unspecified individual impurity ([2]; 1 M): <0.05%
- Water content (KF) ([2]; 1 M): 0.1%
- Crystal form (XRPD) ([2]; 1 M): conform
- Appearance ([2]; 2 M): White
- Assay Adipic acid (potentiometric titration) ([2]; 2 M): 26.4%
- Assay DS-6051a (HPLC)/ (anhydrous and solvent free basis) ([2]; 2 M): 99.6%
- Related substances (UPLC) Total impurities ([2]; 2 M): <0.05%
- Related substances (UPLC) Unspecified individual impurity ([2]; 2 M): <0.05%
- Water content (KF) ([2]; 2 M): 0.1%
- Crystal form (XRPD) ([2]; 2 M): conform
- Appearance ([2]; 3 M): White
- Assay Adipic acid (potentiometric titration) ([2]; 3 M): 26.2%
- Assay DS-6051a (HPLC)/ (anhydrous and solvent free basis) ([2]; 3 M): 99.5%
- Related substances (UPLC) Total impurities ([2]; 3 M): <0.05%
- Related substances (UPLC) Unspecified individual impurity ([2]; 3 M): <0.05%
- Water content (KF) ([2]; 3 M): 0.1%
- Crystal form (XRPD) ([2]; 3 M): conform
- Appearance ([2]; 6 M): White
- Assay Adipic acid (potentiometric titration) ([2]; 6 M): 26.2%
- Assay DS-6051a (HPLC)/ (anhydrous and solvent free basis) ([2]; 6 M): 99.0%
- Related substances (UPLC) Total impurities ([2]; 6 M): <0.05%
- Related substances (UPLC) Unspecified individual impurity ([2]; 6 M): <0.05%
- Water content (KF) ([2]; 6 M): 0.1%
- Crystal form (XRPD) ([2]; 6 M): conform
- stability (in words) [3]: superior stability
- Appearance ([3]; 0 M): White
- Assay (anhydrous and solvent free basis) ([3]; 0 M): 100.0%
- Individual unspecified impurity (Maximum) ([3]; 0 M): 0.09%
- Total impurities ([3]; 0 M): 0.61%
- Water content ([3]; 0 M): 0.07%
- deF-6051 ([3]; 0 M): 0.46%
- Appearance ([3]; 3 M): White
- Assay (anhydrous and solvent free basis) ([3]; 3 M): 100.0%
- Individual unspecified impurity (Maximum) ([3]; 3 M): 0.09%
- Total impurities ([3]; 3 M): 0.61%
- Water content ([3]; 3 M): 0.08%
- deF-6051 ([3]; 3 M): 0.46%
- Appearance ([3]; 6 M): White
- Assay (anhydrous and solvent free basis) ([3]; 6 M): 100.0%
- Individual unspecified impurity (Maximum) ([3]; 6 M): 0.09%
- Total impurities ([3]; 6 M): 0.54%
- Water content ([3]; 6 M): 0.11%
- deF-6051 ([3]; 6 M): 0.45%
- Appearance ([3]; 9 M): White
- Assay (anhydrous and solvent free basis) ([3]; 9 M): 99.9%
- Individual unspecified impurity (Maximum) ([3]; 9 M): 0.09%
- Total impurities ([3]; 9 M): 0.60%
- Water content ([3]; 9 M): 0.08%
- deF-6051 ([3]; 9 M): 0.46%
- Appearance ([3]; 12 M): White
- Assay (anhydrous and solvent free basis) ([3]; 12 M): 100.2%
- Individual unspecified impurity (Maximum) ([3]; 12 M): 0.09%
- Total impurities ([3]; 12 M): 0.55%
- Water content ([3]; 12 M): 0.09%
- deF-6051 ([3]; 12 M): 0.46%
- Appearance ([3]; 18 M): White
- Assay (anhydrous and solvent free basis) ([3]; 18 M): 100.2%
- Individual unspecified impurity (Maximum) ([3]; 18 M): 0.09%
- Total impurities ([3]; 18 M): 0.55%
- Water content ([3]; 18 M): 0.06%
- deF-6051 ([3]; 18 M): 0.46%
- Appearance ([3]; 24 M): White
- Assay (anhydrous and solvent free basis) ([3]; 24 M): 99.7%
- Individual unspecified impurity (Maximum) ([3]; 24 M): 0.09%
- Total impurities ([3]; 24 M): 0.54%
- Water content ([3]; 24 M): 0.07%
- deF-6051 ([3]; 24 M): 0.45%
- Appearance ([3]; 36 M): White
- Assay (anhydrous and solvent free basis) ([3]; 36 M): 100.0%
- Individual unspecified impurity (Maximum) ([3]; 36 M): 0.09%
- Total impurities ([3]; 36 M): 0.53%
- Water content ([3]; 36 M): 0.06%
- deF-6051 ([3]; 36 M): 0.44%
- time stable at room temperature in a sealed container ([3]; room temperature, sealed container): at least 36 months
- crystalline form (XRPD) of the sample before and after the DVS test [4]: did not change
- weight increase (DVS) ([4]; at 80% RH, 25±1° C.): 0.235%
- hygroscopicity (in words) ([4]; from DVS weight increase at 80% RH): low hygroscopicity; also recorded: very low or nearly no hygroscopicity
